Experimental data: patent US10011595B2 (Merck Sharp & Dohme Corp., priority 2014, dated 2018)
pIC50: −log10 of the molar value.

These compounds were tested against human orexin-2 receptor (Homo sapiens (Human), UniProt O43614) (assay: FLIPR Ca2+ Flux Assay, orexin-2 receptor). Conditions: CHO cells expressing the human orexin-2 receptor; agonist 70 pM Ala-6,12 orexin-A; read-out: hOX2R FLIPR IC50.
Format: cell-based
In short: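 CHO cells expressing rat OX1 or human OX2 receptor, Fluo-4AM loaded 60 min; compound preincubated 5 min before 70 pM Ala-6,12 human orexin-A in HBSS/20 mM HEPES/0.1% BSA/2.5 mM probenecid, pH 7.4. FLIPR peak fluorescence over 5 min versus agonist-only response gives IC50.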

human orexin-2 receptor, sequence (O43614 whole entry): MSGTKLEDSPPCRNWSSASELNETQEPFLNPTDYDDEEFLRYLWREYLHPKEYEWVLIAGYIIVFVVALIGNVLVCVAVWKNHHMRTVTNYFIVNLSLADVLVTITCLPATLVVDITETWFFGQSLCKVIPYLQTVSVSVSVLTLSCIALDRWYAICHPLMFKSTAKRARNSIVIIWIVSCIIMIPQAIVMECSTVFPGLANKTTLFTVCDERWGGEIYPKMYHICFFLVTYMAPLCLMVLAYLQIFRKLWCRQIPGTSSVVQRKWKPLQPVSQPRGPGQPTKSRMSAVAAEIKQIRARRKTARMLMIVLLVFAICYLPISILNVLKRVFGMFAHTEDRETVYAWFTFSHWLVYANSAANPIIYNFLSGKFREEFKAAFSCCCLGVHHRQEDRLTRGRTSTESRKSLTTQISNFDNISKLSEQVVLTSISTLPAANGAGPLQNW

In order of falling pIC50:
1. CCN(CCN(C)c1nc(C)cc(C)n1)C(=O)c1ccccc1-n1ncnn1 [Example B-31, N-{2-[(4,6-dimethylpyrimidin-2-yl)(methyl)amino]ethyl}-N-ethyl-2-(2H-tetrazol-2-yl)benzamide]  8.06
2. CCN(CCN(C)c1nc(C)cc(C)n1)C(=O)c1ccccc1OC(F)(F)F [Example B-7, N-(2-((4,6-dimethylpyrimidin-2-yl)(methyl)amino)ethyl)-N-ethyl-2-(trifluoromethoxy)benzamide]  8.03
3. CCN(CCN(C)c1nccc(C(C)(C)O)n1)C(=O)c1ccccc1OC(F)(F)F [Example H-27]  8.00
4. CCN(CCN(C)c1nc(C)cc(C)n1)C(=O)c1ccccc1OCC(F)(F)F [Example B-17, N-{2-[(4,6-dimethylpyrimidin-2-yl)(methyl)amino]ethyl}-N-ethyl-2-(2,2,2-trifluoroethoxy)-benzamide]  7.95
5. CCN(CCN(C)c1nc(C)cc(C)n1)C(=O)c1ccc(F)cc1-n1nccn1 [Example B-12, N-(2-((4,6-dimethylpyrimidin-2-yl)(methyl)amino)ethyl)-N-ethyl-4-fluoro-2-(2H-1,2,3-triazol-2-yl)benzamide]  7.90
6. CCN(CCN(C)c1nccc(C(C)(C)O)n1)C(=O)c1ccccc1C1CC1(F)F (stereo not drawn) [Example H-26, 2-(2,2-difluorocyclopropyl)-N-ethyl-N-(2-((4-(2-hydroxypropan-2-yl)pyrimidin-2-yl)(methyl)amino)ethyl) benzamide]  7.77
7. CCN(CCN(C)c1nc(C)cc(C)n1)C(=O)c1nccnc1-n1cccn1 [Example B-28, N-{2-[(4,6-dimethylpyrimidin-2-yl)(methyl)amino]ethyl}-N-ethyl-3-(1H-pyrazol-1-yl)pyrazine-2-carboxamide]  7.73
8. CCN(CCN(C)c1nc(C)cc(C)n1)C(=O)c1ccccc1C1CC1(F)F (stereo not drawn) [Example B-29, 2-(2,2-difluorocyclopropyl)-N-{2-[(4,6-dimethylpyrimidin-2-yl)(methyl)amino]ethyl}-N-ethylbenzamide]  7.72
9. CCN(CCN(C)c1cc(C#N)ccn1)C(=O)c1ccccc1-c1cnccn1 [Example F-11, N-{2-[(4-cyanopyridin-2-yl)(methyl)amino]ethyl}-N-ethyl-2-pyrazin-2-ylbenzamide]  7.64
10. CCN(CCN(C)c1cc(C#N)ccn1)C(=O)c1cc(F)ccc1-n1nccn1 [Example F-30, N-{2-[(4-cyanopyridin-2-yl)(methyl)amino]ethyl}-N-ethyl-5-fluoro-2-(2H-1,2,3-triazol-2-yl)benzamide]  7.61
11. CCN(CCN(C)c1nc(C)cc(C)n1)C(=O)c1ccccc1CC(F)(F)F [Example B-18, N-{2-[(4,6-dimethylpyrimidin-2-yl)(methyl)amino]ethyl}-N-ethyl-2-(2,2,2-trifluoroethyl)benzamide]  7.44
12. CCN(CCN(C)c1nc(C)cc(C)n1)C(=O)c1cccnc1OCC(F)F [Example B-10, 2-(2,2-difluoroethoxy)-N-(2-((4,6-dimethylpyrimidin-2-yl)(methyl)amino)ethyl)-N-ethylnicotinamide]  7.39
13. CCN(CCN(C)c1cccc(C(C)(C)O)n1)C(=O)c1ccccc1C1CC1 [Example I-13, 2-cyclopropyl-N-ethyl-N-(2-((6-(2-hydroxypropan-2-yl)pyridin-2-yl)(methyl)amino)ethyl)benz-amide]  7.27
14. CCN(CCN(C)c1cc(C#N)ccn1)C(=O)c1ccccc1OC(F)(F)F [Example F-1, {2-[(4-cyanopyridin-2-yl)(methyl)amino]ethyl}-N-ethyl-2-(trifluoromethoxy)benzamide]  7.24
15. CCN(CCN(C)c1cccc(C(C)(C)O)n1)C(=O)c1ccccc1OC(F)(F)F [Example I-12, N-ethyl-N-(2-((6-(2-hydroxypropan-2-yl)pyridin-2-yl)(methyl)amino)ethyl)-2-(trifluoromethoxy)benzamide]  7.13
16. CCN(CCN(C)c1cccc(C(C)(C)O)n1)C(=O)c1ccccc1-n1cccn1 [Example I-10, N-ethyl-N-(2-((6-(2-hydroxypropan-2-yl)pyridin-2-yl)(methyl)amino)ethyl)-2-(1H-pyrazol-1-yl)benzamide]  7.03
17. CCN(CCN(C)c1nc(C)cc(C)n1)C(=O)c1ccccc1CC(F)F [Example B-23, 2-(2,2-difluoroethyl)-N-{2-[(4,6-dimethylpyrimidin-2-yl)(methyl)amino]ethyl}-N-ethylbenzamide]  7.02
18. CN(CCN(Cc1ccccc1)C(=O)c1ccccc1-n1nccn1)c1cc(C#N)ccn1 [Example G-6, N-benzyl-N-(2-((4-cyanopyridin-2-yl)(methyl)amino)ethyl)-2-(2H-1,2,3-triazol-2-yl)benzamide]  6.95
19. CCN(CCN(C)c1nccc(C#N)c1C)C(=O)c1ccccc1-n1nccn1 [Example E-7, N-(2-((4-cyano-3-methylpyridin-2-yl)(methyl)amino)ethyl)-N-ethyl-2-(2H-1,2,3-triazol-2-yl)benzamide]  6.70
20. CCN(CCN(C)c1nccc(C#N)n1)C(=O)c1ccccc1-n1nccn1 [Example E-10, N-{2-[(4-cyanopyrimidin-2-yl)(methyl)amino]ethyl}-N-ethyl-2-(2H-1,2,3-triazol-2-yl)benzamide]  6.61
21. CCN(CCN(C)c1nc(C)cc(C)n1)C(=O)c1nccnc1-n1nccn1 [Example B-15, N-(2-((4,6-dimethylpyrimidin-2-yl)(methyl)amino)ethyl)-N-ethyl-3-(2H-1,2,3-triazol-2-yl)pyrazine-2-carboxamide]  5.90
22. CCN(CCN(C)c1cc(C#N)ccn1)C(=O)c1cccnc1C(F)(F)F [Example F-8, N-{2-[(4-cyanopyridin-2-yl)(methyl)amino]ethyl}-N-ethyl-2-(trifluoromethyl)pyridine-3-carboxamide]  5.70
23. CCOc1cccc(C(=O)N(CC)CCN(C)c2cc(C#N)ccn2)c1OC [Example F-29, N-{2-[(4-cyanopyridin-2-yl)(methyl)amino]ethyl}-3-ethoxy-N-ethyl-2-methoxybenzamide]  5.00
24. CCN(CCN(C)c1cc(C#N)ccn1)C(=O)c1ccccc1-n1ccnc1 [Example F-9, N-{2-[(4-cyanopyridin-2-yl)(methyl)amino]ethyl}-N-ethyl-2-(1H-imidazol-1-yl)benzamide]  5.00
